Assay results: US20090105251A1, “Renin inhibitors” (priority 2007, published 2009)

Molecular target: T1, Recombinant human renin (Homo sapiens, UniProt P00797)
T1 construct: isolate the active form (residues 67-406); made in house
T1 sequence (P00797 67-406): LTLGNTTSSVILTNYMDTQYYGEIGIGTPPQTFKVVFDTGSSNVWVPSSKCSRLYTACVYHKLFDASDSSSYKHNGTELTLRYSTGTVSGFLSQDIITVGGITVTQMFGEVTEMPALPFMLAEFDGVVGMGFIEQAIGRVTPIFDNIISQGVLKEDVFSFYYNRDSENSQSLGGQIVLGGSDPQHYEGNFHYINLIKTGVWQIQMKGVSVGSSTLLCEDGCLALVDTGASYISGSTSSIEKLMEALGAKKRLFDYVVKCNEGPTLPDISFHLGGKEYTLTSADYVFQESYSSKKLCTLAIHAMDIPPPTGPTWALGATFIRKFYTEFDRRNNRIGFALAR
Test: In vitro enzymatic activity assay of renin inhibitors (fluorogenic peptide substrate)
Format: biochemical
Details: recombinant human renin 3 nM, 1 μM substrate QXL520/HiLyteFluo488 peptide, pH 7.4, 37° C., fluorescence; values given as ranges; read-out: IC50 of Exemplified Compounds Against Renin, IC50
Excerpt: Test compounds in varying concentrations may be reacted with recombinant human renin in the presence of substrate, e.g., QXL520-γ-Abu-Ile-His-Pro-Phe-His-Leu-Val-Ile-His-Thr-Lys (HiLyteFluo488)-Arg-OH (Anaspec, San Jose, Calif.). The reaction can be followed kinetically using fluorescence (excitation λ=485 nm; emission λ=538 nm). Inhibition constants (IC50) may be calculated by non-linear curve fitting of the compound concentrations and fluorescence intensities to the standard IC50 equation.
Solutions of test compounds in varying concentrations (≦2 mM final concentration) are prepared in dimethyl sulfoxide (DMSO) and then diluted into assay buffer comprising 50 mM Hepes, 1 mM EDTA, 1 mM DTT, 0.1 mg/ml BSA, 0.01% Brij35, pH 7.4. Alternatively, the assay can be performed with a high BSA concentration, wherein the buffer contains an additional 2% BSA.
Recombinant human renin (3 nM final concentration) is added to the dilutions and pre-incubated with the compounds for 10 minutes at 37° C. As described in Examples A-C above, human renin can be obtained by expressing preprorenin (residue 1-406) in mammalian cells, treating the prorenin (residues 24-406) contained in the culture supernatant with trypsin, and isolate the active form (residues 67-406). After pre-incubation, the reaction is initiated with 1 μM of substrate QXL520-γ-Abu-Ile-His-Pro-Phe-His-Leu-Val-Ile-His-Thr-Lys (HiLyteFluo488)-Arg-OH (Anaspec, San Jose, Calif.). The final DMSO in the assay is 5%. The total volume of the reaction mixture is 20 μL, which can be placed on Greiner 384-well small volume plates.
Renin activity may be determined via fluorescence (excitation λ=485 nm; emission λ=538 nm), e.g., on a Molecular Devices SPECTROmax GEMINI XPS. The fluorescence intensity is determined upon the addition of substrate and determined again after incubation at 37° C. for one hour. The fluorescence intensity of a blank (no inhibition) using vehicle alone is also determined. Renin activity is linearly proportional to the change in fluorescence observed (final−initial).
The percent inhibition of renin at a given compound concentration is defined as:
100%×[1−(Fcompound/Fblank)]
where Fcompound is the observed fluorescence at a given concentration of test compound and Fblank is the observed fluorescence in the presence of vehicle alone.
The pIC50 value (negative log of the molar concentration of the compound that produces 50% inhibition) of a test compound is calculated by non-linear least squares curve fitting of the equation:
Percent Inhibition=100%/(1+(10^−pIC50/10^log [I]))
to percent inhibition versus compound concentration. The 50% inhibitory concentration (IC50) of a test compound is calculated by raising 10 to the negative pIC50 (10^−pIC50).

IC50, 50 to 100 µM:
COc1ccc(C(=O)c2ccccc2C(=O)N2CCNC[C@H]2Cc2ccccc2)cc1 [Example 25, (R)-(2-benzylpiperazin-1-yl)(2-(4-methoxybenzoyl)phenyl)methanone]
Cc1noc(-c2ccccc2)c1C(=O)N1CCNC[C@H]1Cc1ccccc1 [Example 29, (R)-(2-benzylpiperazin-1-yl)(3-methyl-5-phenylisoxazol-4-yl)methanone]
O=C(c1nccn1-c1ccccc1C(F)(F)F)N1CCNC[C@H]1Cc1ccccc1 [Example 8, ((R)-2-benzylpiperazin-1-yl)(1-(2-(trifluoromethyl)phenyl)-1H-imidazol-2-yl)methanone]

IC50, > 100 µM:
Cc1n[nH]c(C)c1-c1ccccc1C(=O)N1CCNC[C@H]1Cc1ccccc1 [Example 28, ((R)-2-benzylpiperazin-1-yl)(2-(3,5-dimethyl-1H-pyrazol-4-yl)phenyl)methanone]
O=C(c1cncn1-c1cccc2ccccc12)N1CCNC[C@H]1Cc1ccccc1 [Example 26, ((R)-2-benzylpiperazin-1-yl)(1-(naphthalen-1-yl)-1H-imidazol-5-yl)methanone]

IC50, < 1 µM:
O=C(c1ccsc1-c1ccccc1Oc1ccccc1)N1CCNC[C@H]1Cc1ccccc1 [Example 12, ((R)-2-benzylpiperazin-1-yl)(2-(2-phenoxyphenyl)thiophen-3-yl)methanone]
O=C(c1sccc1-c1ccccc1Oc1ccccc1)N1CCNC[C@H]1Cc1ccccc1 [Example 1, ((R)-2-benzylpiperazin-1-yl)(3-(2-phenoxyphenyl)thiophen-2-yl)methanone]

IC50, 1 to 50 µM:
CC(C)(C)n1ncc(C(=O)N2CCNC[C@H]2Cc2ccccc2)c1-c1ccccc1 [Example 38, (R)-(2-benzylpiperazin-1-yl)(1-tert-butyl-5-phenyl-1H-pyrazol-4-yl)methanone]
O=C(c1c(-c2ccccc2Cl)noc1C1CC1)N1CCNC[C@H]1Cc1ccccc1 [Example 33, ((R)-2-benzylpiperazin-1-yl)(3-(2-chlorophenyl)-5-cyclopropylisoxazol-4-yl)methanone]
Cc1cc2cc(C(=O)N3CCNC[C@H]3Cc3ccccc3)n(Cc3ccccc3)c2s1 [Example 34, (R)-(6-benzyl-2-methyl-6H-thieno[2,3-b]pyrrol-5-yl)(2-benzylpiperazin-1-yl)methanone]
Cc1cc(C)c(C#N)c(Oc2ccccc2-c2ccsc2C(=O)N2CCNC[C@H]2Cc2ccccc2)n1 [Example 9, 2-(2-(2-((R)-2-benzylpiperazine-1-carbonyl)thiophen-3-yl)phenoxy)-4,6-dimethylnicotinonitrile]
Cc1oc(-c2ccccc2)nc1Cn1nc(C(=O)N2CCNC[C@H]2Cc2ccccc2)c2ccccc21 [Example 37, (R)-(2-benzylpiperazin-1-yl)(1-((5-methyl-2-phenyloxazol-4-yl)methyl)-1H-indazol-3-yl)methanone]
O=C(c1ccccc1-c1ccccc1Cl)N1CCNC[C@H]1Cc1ccccc1 [Example 5, ((R)-2-benzylpiperazin-1-yl)(2′-chlorobiphenyl-2-yl)methanone]
O=C(c1ccc(-c2ccccc2Oc2ccccc2)o1)N1CCNC[C@H]1Cc1ccccc1 [Example 45, (R)-(2-benzylpiperazin-1-yl)(5-(2-phenoxyphenyl)furan-2-yl)methanone]
N#Cc1cccnc1Oc1ccccc1-c1ccsc1C(=O)N1CCNC[C@H]1Cc1ccccc1 [Example 11, 2-(2-(2-((R)-2-benzylpiperazine-1-carbonyl)thiophen-3-yl)phenoxy)nicotinonitrile]
O=C(c1ccnn1-c1ccccc1)N1CCNC[C@H]1Cc1ccccc1 [Example 6, (R)-(2-benzylpiperazin-1-yl)(1-phenyl-1H-pyrazol-5-yl)methanone]
Cc1nn(C)c(C(=O)N2CCNC[C@H]2Cc2ccccc2)c1-c1ccccc1Oc1ccccc1 [Example 13, ((R)-2-benzylpiperazin-1-yl)(1,3-dimethyl-4-(2-phenoxyphenyl)-1H-pyrazol-5-yl)methanone]
O=C(c1cccn1-c1ccccc1Oc1ccccc1)N1CCNC[C@H]1Cc1ccccc1 [Example 42, ((R)-2-benzylpiperazin-1-yl)(1-(2-phenoxyphenyl)-1H-pyrrol-2-yl)methanone]
O=C(c1ccsc1-c1ccccc1-c1ccccc1)N1CCNC[C@H]1Cc1ccccc1 [Example 19, ((R)-2-benzylpiperazin-1-yl)(2-(biphenyl-2-yl)-thiophen-3-yl)-methanone]
O=C(c1nnc(-c2ccccc2-c2ccccc2)o1)N1CCNC[C@H]1Cc1ccccc1 [Example 46, (R)-(2-benzylpiperazin-1-yl)(5-(biphenyl-2-yl)-1,3,4-oxadiazol-2-yl)methanone]
O=C1CC(C(=O)N2CCNC[C@H]2Cc2ccccc2)CN1C(c1ccccc1)c1ccccc1 (stereo partly drawn) [Example 24, 1-benzhydryl-4-((R)-2-benzylpiperazine-1-carbonyl)pyrrolidin-2-one]
O=C(c1ccsc1-c1ccccc1CN1CCOCC1)N1CCNC[C@H]1Cc1ccccc1 [Example 41, ((R)-2-benzylpiperazin-1-yl)(2-(2-(morpholinomethyl)phenyl)-thiophen-3-yl)methanone]
CC(=O)NCc1cccnc1Oc1ccccc1-c1ccsc1C(=O)N1CCNC[C@H]1Cc1ccccc1 [Example 40, N-((2-(2-(2-((R)-2-benzylpiperazine-1-carbonyl)thiophen-3-yl)phenoxy)pyridin-3-yl)methyl)acetamide]
O=C(c1ccccc1Cc1ccccc1)N1CCNC[C@H]1Cc1ccccc1 [Example 21, (R)-(2-benzylphenyl)(2-benzylpiperazin-1-yl)methanone]
O=C(c1nc(-c2cccnc2)sc1-c1ccccc1)N1CCNC[C@H]1Cc1ccccc1 [Example 30, (R)-(2-benzylpiperazin-1-yl)(5-phenyl-2-(pyridin-3-yl)thiazol-4-yl)methanone]
O=C(c1cc(-c2ccc(Cl)cc2)cs1)N1CCNC[C@H]1Cc1ccccc1 [Example 36, (R)-(2-benzylpiperazin-1-yl)(4-(4-chlorophenyl)thiophen-2-yl)methanone]
O=C(c1cc(-c2ccccc2Oc2ccccc2)cs1)N1CCNC[C@H]1Cc1ccccc1 [Example 43, (R)-(2-benzylpiperazin-1-yl)(4-(2-phenoxyphenyl)thiophen-2-yl)methanone]
N#Cc1ccccc1Oc1ccccc1-c1ccsc1C(=O)N1CCNC[C@H]1Cc1ccccc1 [Example 10, 2-(2-(2-((R)-2-benzylpiperazine-1-carbonyl)thiophen-3-yl)phenoxy)benzonitrile]
O=C(c1ccccc1-c1ccccc1)N1CCNC[C@H]1Cc1ccccc1 [Example 4, (R)-(2-benzylpiperazin-1-yl)(biphenyl-2-yl)methanone]
O=C(c1cncn1-c1ccccc1-c1ccccc1)N1CCNC[C@H]1Cc1ccccc1 [Example 27, ((R)-2-benzylpiperazin-1-yl)(1-(biphenyl-2-yl)-1H-imidazol-5-yl)methanone]
O=C(c1ccccc1-c1nc2ccccc2s1)N1CCNC[C@H]1Cc1ccccc1 [Example 32, (R)-(2-(benzo[d]thiazol-2-yl)phenyl)(2-benzylpiperazin-1-yl)methanone]
O=C(c1ccc(F)cc1-c1ccccc1Oc1ccccc1)N1CCNC[C@H]1Cc1ccccc1 [Example 15, ((R)-2-benzylpiperazin-1-yl)(5-fluoro-2′-phenoxybiphenyl-2-yl)methanone]
